Like-named read-outs stand apart in the source and are kept apart here.
Columns and labels:
[1] = Meta-analysis DAPA-HF/CKD, cited from earlier work
[2] = Source text: (§1) “eGFR slope” is the change in […] over time. “eGFR” stands for the estimated glomerular filtration rate.
(§2) (See Inker et al., GFR Slope as a Surrogate End Point for Kidney Disease Progression in Clinical Trials: A Meta-Analysis of Treatment Effects of Randomized Controlled Trials. J Am Soc Nephrol. 2019; 30 (9): 1735-45; Levey et al., GFR decline as an end point for clinical trials in CKD. Am J Kidney Dis. 2014; 64 (6): 821-35.)
(§3) The patients without diabetes (or T2D) included those with prediabetes.

[3] = DAPA-HF
[4] = DAPA-HF; remark: listed apart in the source
[5] = DAPA-CKD
[6] = remark: listed apart in the source
Procedure: The DECLARE study enrolled a broad T2D patient population. By using parameters to select for a relatively healthy population that is close to the prediabetes population, the DECLARE population was split into 4 subgroups. The four subgroups in DECLARE are those with eGFR ≥60 ml/min/1.73 m^2, no history of HF at baseline and: • 1. HbA1c <7%, SBP <140 mmHg, and UACR ≤300 mg/g, or • 2. HbA1c <7%, SBP <140 mmHg, and UACR <30 mg/g, or • 3. T2D <5 years and UACR ≤300 mg/g, or • 4. T2D <5 years and UACR ≤30 mg/g.
as §2

[7] = DECLARE subgroup: HbA1c <7%, eGFR ≥60 ml/min/1.73 m^2, no history of HF, UACR ≤300 mg/g; Dapa 10 mg vs placebo
[8] = DAPA-CKD, HbA1C < 6.5%, cited from earlier work
[9] = DAPA-HF, HbA1C < 6.5%, cited from earlier work
[10] = DAPA-HF (prediabetes); slope at 14-720 days
Source text: as §1, §2

[11] = DAPA-CKD; remark: listed apart in the source
Source text: as §3

[12] = non-diabetic and prediabetic patients, DAPA-HF and DAPA-CKD, 10 mg once daily
Source text: DAPA-HF and DAPA-CKD included patients without diabetes, including those who qualify as prediabetic.

[13] = pre-diabetic 5.7% ≤ HbA1c < 6.5, Dapa vs placebo

For `CCOc1ccc(Cc2cc([C@@H]3O[C@H](CO)[C@@H](O)[C@H](O)[C@H]3O)ccc2Cl)cc1` [dapagliflozin], which “Event rate of new onset T2D” value ([1]; HbA1c < 6.5%, 4003 participants) is on record?
Its value is “Dapa: 2.6 per 100 patient-years of follow-up”.

And the “HR (95% CI) new onset T2D” value ([1]; HbA1c < 6.5%, Dapa vs placebo)?
The value was 0.67 (0.51, 0.88).

What about the “Event rate of new onset T2D” value ([1]; pre-diabetic 5.7% ≤ HbA1c < 6.5, 2408 participants) of the same molecule?
The value was “Dapa: 4.2 per 100 patient-years of follow-up”.

And the “HR (95% CI) new onset T2D” value [1, 13]?
The value was 0.69 (0.52, 0.91).

And the “eGFR chronic slope, Slope diff between Dapa 10 mg and Placebo” value (“eGFR chronic slope” for short) ([2]; DAPA-CKD (prediabetes), slope at 14 days-30 months)?
The value was 1.44 ml/min/1.73 m^2/yr.

And the “placebo-corrected difference in eGFR slope” value ([2]; DAPA-CKD, T2D patients, from baseline to end of treatment)?
The value was 1.18 ml/min/1.73 m^2/yr.

What about the “placebo-corrected difference in eGFR slope” value ([2]; DAPA-CKD, T2D patients, from two weeks to end of treatment) of the same molecule?
Its value is 2.26 ml/min/1.73 m^2/yr.

What about the “placebo-corrected difference in eGFR slope” value ([2]; DAPA-CKD, patients without T2D, from baseline to end of treatment) of the same molecule?
The value was 0.46 ml/min/1.73 m^2/yr.

What about the “placebo corrected difference in eGFR slope” value ([2]; DAPA-CKD, patients without T2D, from two weeks to end of treatment) of the same molecule?
The value was 1.29 ml/min/1.73 m^2/yr.

And the “Event rate of new onset T2D” value ([3]; pre-diabetic 5.7% ≤ HbA1C < 6.5, 1748 participants)?
Its value is “Dapa: 5.3 per 100 patient-years of follow-up”.

And the “HR (95% CI) new onset T2D” value ([3]; pre-diabetic 5.7% ≤ HbA1C < 6.5, Dapa vs placebo)?
The value was 0.72 (0.52, 0.99).

And the “HR, primary composite outcome (CV death, hospitalization for HF, or urgent HF visit)” value ([4]; patients with diabetes)?
The value was 0.75.

And the “HR, primary composite outcome (CV death, hospitalization for HF, or urgent HF visit)” value ([4]; patients without diabetes)?
The value was 0.73.

What about the “Event rate of new onset T2D” value ([5]; pre-diabetic 5.7% ≤ HbA1c < 6.5, 660 participants) of the same molecule?
Its value is “Dapa: 2.7 per 100 patient-years of follow-up”.

And the “HR (95% CI) new onset T2D” value [5, 13]?
Its value is 0.59 (0.33, 1.04).

And the “eGFR chronic slope” value ([6]; DECLARE (Total Population), 6 months-2 yrs)?
The value was 1.34 ml/min/1.73 m^2/yr.

What about the “eGFR chronic slope” value ([6]; DECLARE (Total Population), 6 months-3 yrs) of the same molecule?
Its value is 1.18 ml/min/1.73 m^2/yr.

And the “eGFR chronic slope” value ([6]; DECLARE (Total Population), 6 months-4 yrs)?
Its value is 1.01 ml/min/1.73 m^2/yr.

And the “eGFR chronic slope” value ([6]; DECLARE subgroup HbA1c <7%, SBP <140 mmHg, UACR <30 mg/g, eGFR ≥60, no HF, 6 months-2 yrs)?
The value was 1.25 ml/min/1.73 m^2/yr.

What about the “eGFR chronic slope” value ([6]; DECLARE subgroup HbA1c <7%, SBP <140 mmHg, UACR <30 mg/g, eGFR ≥60, no HF, 6 months-3 yrs) of the same molecule?
Its value is 1.17 ml/min/1.73 m^2/yr.

What about the “eGFR chronic slope” value ([6]; DECLARE subgroup HbA1c <7%, SBP <140 mmHg, UACR <30 mg/g, eGFR ≥60, no HF, 6 months-3 yrs, listed as Dapa) of the same molecule?
Its value is 1.71 ml/min/1.73 m^2/yr.

And the “eGFR chronic slope” value ([6]; DECLARE subgroup HbA1c <7%, SBP <140 mmHg, UACR <30 mg/g, eGFR ≥60, no HF, 6 months-4 yrs)?
The value was 0.98 ml/min/1.73 m^2/yr.

What about the “eGFR chronic slope” value ([6]; DECLARE subgroup HbA1c <7%, SBP <140 mmHg, UACR ≤300 mg/g, eGFR ≥60, no HF, 6 months-2 yrs) of the same molecule?
Its value is 1.56 ml/min/1.73 m^2/yr.

What about the “eGFR chronic slope” value ([6]; DECLARE subgroup HbA1c <7%, SBP <140 mmHg, UACR ≤300 mg/g, eGFR ≥60, no HF, 6 months-3 yrs) of the same molecule?
Its value is 1.85 ml/min/1.73 m^2/yr.

And the “eGFR chronic slope” value ([6]; DECLARE subgroup HbA1c <7%, SBP <140 mmHg, UACR ≤300 mg/g, eGFR ≥60, no HF, 6 months-4 yrs)?
The value was 1.08 ml/min/1.73 m^2/yr.

And the “eGFR chronic slope” value ([6]; DECLARE subgroup diabetes duration <5 years, UACR ≤30 mg/g, eGFR ≥60, no HF, 6 months-2 yrs)?
Its value is 1.03 ml/min/1.73 m^2/yr.

What about the “eGFR chronic slope” value ([6]; DECLARE subgroup diabetes duration <5 years, UACR ≤30 mg/g, eGFR ≥60, no HF, 6 months-3 yrs) of the same molecule?
The value was 0.96 ml/min/1.73 m^2/yr.

What about the “eGFR chronic slope” value ([6]; DECLARE subgroup diabetes duration <5 years, UACR ≤30 mg/g, eGFR ≥60, no HF, 6 months-4 yrs) of the same molecule?
The value was 0.86 ml/min/1.73 m^2/yr.

What about the “eGFR chronic slope” value ([6]; DECLARE subgroup diabetes duration <5 years, UACR ≤300 mg/g, eGFR ≥60, no HF, 6 months-2 yrs) of the same molecule?
Its value is 0.88 ml/min/1.73 m^2/yr.

What about the “eGFR chronic slope” value ([6]; DECLARE subgroup diabetes duration <5 years, UACR ≤300 mg/g, eGFR ≥60, no HF, 6 months-3 yrs) of the same molecule?
The value was 0.92 ml/min/1.73 m^2/yr.

And the “eGFR chronic slope” value ([6]; DECLARE subgroup diabetes duration <5 years, UACR ≤300 mg/g, eGFR ≥60, no HF, 6 months-4 yrs)?
The value was 0.86 ml/min/1.73 m^2/yr.

And the “renal benefits following dapagliflozin treatment” value ([6]; DECLARE, T2D patients with eGFR 60 to 90 and ≥90 ml/min/1.73 m^2)?
Its value is “reduced eGFR decline and albuminuria”.

What about the “risk of worsening blood pressure (time to worsening in blood pressure category)” value [7] of the same molecule?
Its value is “lowered the risk of worsening blood pressure compared with placebo”.

What about the “Event rate of new onset T2D” value ([8]; 1398 participants) of the same molecule?
Its value is “Dapa: 1.4 per 100 patient-years of follow-up”.

What about the “HR (95% CI) new onset T2D” value ([8]; Dapa vs placebo) of the same molecule?
The value was 0.62 (0.36, 1.07).

What about the “Event rate of new onset T2D” value ([9]; 2605 participants) of the same molecule?
Its value is “Dapa: 5.0 per 100 patient-years of follow-up”.

What about the “HR (95% CI) new onset T2D” value ([9]; Dapa vs placebo) of the same molecule?
Its value is 0.68 (0.50, 0.94).

What about the “eGFR chronic slope” value [10] of the same molecule?
Its value is 1.35 ml/min/1.73 m^2/yr.

And the “HR, primary composite outcome of worsening of kidney function or death” value ([11]; patients with diabetes)?
Its value is 0.64.

And the “HR, primary composite outcome of worsening of kidney function or death” value ([11]; patients without diabetes)?
The value was 0.50.

What about the “Events of definite or probable diabetic ketoacidosis (DKA)” value [12] of the same molecule?
Its value is “not observed”.

What about the “major hypoglycemic AEs” value [12] of the same molecule?
The value was “not observed”.

What about the safety profile [12] of the same molecule?
The safety profile was “consistent with the profile established in patients with T2D”.
